Source: PubChem BioAssay (NCI)
Where “and” joins values, the source holds several entries; their conditions need not be identical. Equal entries are not always repeated.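 Interpolation was linear, between the two tested concentrations surrounding the appropriate level; five concentrations were tested over 48 hours in 96-well plates. Abbreviation: GI50, concentration required for 50% inhibition of growth. TGI: total growth inhibition.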

What was measured:
Assay in all cases: DTP human tumour cell line panel, 48 h
SF-295 CNS = tested on: SF-295 CNS
U251 CNS = tested on: U251 CNS
T-47D breast = tested on: T-47D breast
SNB-75 CNS = tested on: SNB-75 CNS
TK-10 renal = tested on: TK-10 renal
HCT-15 colon = tested on: HCT-15 colon
DU-145 prostate = tested on: DU-145 prostate
HOP-92 NSCLC = tested on: HOP-92 NSCLC
786-0 renal = tested on: 786-0 renal
M14 melanoma = tested on: M14 melanoma

Row | SMILES | GI50 (SF-295 CNS) | TGI (SF-295 CNS) | GI50 (U251 CNS) | TGI (U251 CNS) | GI50 (T-47D breast) | TGI (T-47D breast) | GI50 (SNB-75 CNS) | TGI (SNB-75 CNS) | GI50 (TK-10 renal) | TGI (TK-10 renal) | GI50 (HCT-15 colon) | TGI (HCT-15 colon) | GI50 (DU-145 prostate) | TGI (DU-145 prostate) | GI50 (HOP-92 NSCLC) | TGI (HOP-92 NSCLC) | GI50 (786-0 renal) | TGI (786-0 renal) | GI50 (M14 melanoma) | TGI (M14 melanoma)
1 | O=C1Nc2c(ccc(Cl)c2Cl)/C1=C\c1cc(C(F)(F)F)cc(C(F)(F)F)c1 | 1.92 µM | 8.02 µM | 1.15 µM | 3.22 µM | 2.5 µM | 10.2 µM | 1.05 µM | 7.48 µM | 4.37 µM | 13 µM | 1.4 µM | 6.07 µM | 5.57 µM | 13.5 µM | 1.44 µM | 7.42 µM | 4.29 µM | 10.4 µM | 5.06 µM | 11.3 µM
2 | COc1ccc2c(c1)C(=O)c1c-2c(OCCN2CCCCC2)nc2ccc(OC)cc12 | 0.529 µM | 15.2 µM | 0.513 µM | 1.79 µM | 3.44 µM | 25.8 µM | 1.27 µM | 11.2 µM | 4.51 µM | 16.7 µM | 0.54 µM | 2.63 µM | 0.519 µM | 2.19 µM | 2.41 µM | 19.7 µM | 1.04 µM | 2.59 µM | 0.904 µM | 6.87 µM
3 | CC(=O)Nc1ccc(Cc2ccc3[nH]c(=O)cc(C)c3c2)cc1 |  | > 100 µM |  | > 100 µM |  | > 100 µM |  | 28.1 µM |  | > 100 µM |  | > 100 µM |  | > 100 µM |  | > 100 µM |  | 98.2 µM |  | > 100 µM
4 | O=C(O)c1c[nH]c2c(ccc3[nH]cc(C(=O)O)c(=O)c32)c1=O |  | > 100 µM |  | > 100 µM |  | > 100 µM |  | 75 µM |  | > 100 µM |  | > 100 µM |  | > 100 µM |  | > 100 µM |  | > 100 µM |  | > 100 µM
5 | CNC(=O)c1cc(Oc2ccc3nc(NC(=O)Nc4cc(C(F)(F)F)cc(C(F)(F)F)c4)sc3c2)ccn1 | 1.08 µM | 2.41 µM | 1.02 µM | 2.2 µM | 0.479 µM | 2.3 µM | 1 µM | 2.7 µM | 1.67 µM | 3.35 µM | 1.5 µM | 3.31 µM | 1.25 µM | 2.98 µM | 0.301 µM | 0.949 µM | 1.42 µM | 2.86 µM | 1.5 µM | 3.22 µM
6 | C=CCCCC(O)c1ccc(C(O)c2cnc3ccccc3c2)o1 (stereo not drawn) | 35.6 µM | > 100 µM | 29.9 µM | > 100 µM | > 100 µM | > 100 µM | 99.2 µM | > 100 µM | 33.2 µM | 67 µM | 31.4 µM | > 100 µM | 40 µM | > 100 µM | 60.1 µM | > 100 µM | 39.8 µM | > 100 µM | 19.6 µM | 41.3 µM
7 | O=C(c1ccccc1)c1c2n(c3c1cc(O)c1ccccc13)CCN2 | 7.11 µM | 20.8 µM | 1.78 µM | 3.4 µM | 1.77 µM | 3.99 µM | 2.22 µM | 4.76 µM | 23.1 µM | 75.2 µM | 6.5 µM | 19.1 µM | 13.2 µM | 27.1 µM | 2.63 µM | 9.36 µM | 9.23 µM | 31.2 µM | 7.09 µM | 19.3 µM
8 | COc1cc(/C=C2\CC3C4CCC5=CC(=O)CC[C@]5(C)C4CC[C@]3(C)C2=O)ccc1OCCN1CCCCC1 (stereo partly drawn) | 2.02 µM | 4.24 µM | 3.2 µM | 11.2 µM | 11.3 µM | 41.9 µM | 6.97 µM | 24.8 µM | 2.45 µM | 6.96 µM | 3.9 µM | 16 µM | 2.06 µM | 8.33 µM | 1.45 µM | 8.34 µM | 1.92 µM | 4.21 µM | 1.87 µM | 3.46 µM
9 | N/C(=N\C(N)=N\c1nc2ccccc2s1)c1ccnc(Br)c1 | 4.25 µM | > 100 µM | 5.63 µM | 48.9 µM | 8.01 µM | > 100 µM | 2.33 µM | 6.89 µM | 52 µM | > 100 µM | 3.92 µM | > 100 µM | 15.2 µM | > 100 µM | 7.02 µM | > 100 µM | 5.88 µM | > 100 µM | 3.39 µM | > 100 µM
10 | COc1ccc(Nc2ncccc2C(=O)NCc2cn(Cc3cccc(Oc4ccccc4)c3)nn2)c(OC)c1 | 0.552 µM | 22.2 µM | 3.19 µM | > 100 µM | 39.4 µM | > 100 µM | 3.64 µM | > 84.5 µM | 13.8 µM | > 100 µM | 1.68 µM | > 100 µM | 3.52 µM | > 81.5 µM | 36.1 µM | > 100 µM | 3.92 µM | > 100 µM | 1.37 µM | > 100 µM
11 | COc1ccc(/C=C/C(=O)c2ccccc2)cc1OC | 14.5 µM | 32.9 µM and 34 µM | 5.81 µM | 21.9 µM and 18.1 µM | 18.4 µM | 48.7 µM and 60.8 µM | 16.7 µM | 28.9 µM and 35.1 µM | 13.6 µM | 32 µM and 27.8 µM | 5.23 µM | 34.9 µM and 24.8 µM |  | 24.4 µM and 26.4 µM | 26.3 µM | 41 µM and 79.4 µM | 14.6 µM | 17.9 µM and 33.7 µM |  | 30 µM and 29.6 µM
12 | CCCCC1N=CNc2c1ccc1c2[nH]c2ccccc21 (stereo not drawn) |  | 7.25 µM |  | 16.5 µM |  | 3.2 µM |  | 5.54 µM |  | 10.9 µM |  | 4.72 µM |  | 5.72 µM |  | 9.72 µM |  | 3.34 µM |  | 6.74 µM
13 | CSc1nc(SC)c2c(C)cn(C3OC(C)C(O)C(O)C3O)c2n1 (stereo not drawn) |  | > 100 µM |  | > 100 µM |  | 84.7 µM |  | > 100 µM |  | > 100 µM |  | > 100 µM |  | > 100 µM |  | 83.4 µM |  | > 100 µM |  | > 100 µM
14 | CCCCCCn1c2c(c3c(O)cccc31)C(=O)c1ccccc1-2 | 21 µM | 44.8 µM | 17.8 µM | 32.9 µM | 41.4 µM | > 100 µM | 46.3 µM | > 100 µM | 11 µM | 24.2 µM | 18.6 µM | 37 µM | 15.7 µM | 29.7 µM | 17.6 µM | 33.2 µM | 17.1 µM | 32.4 µM | 15.7 µM | 30.2 µM
